Laboratory results reported in patent US6673783B2, “Fusidic acid derivatives” (Leo Pharmaceutical Products Ltd. A/S, priority 2001, dated 2004).
Values after ≈ are worked out from the molar mass of the structure shown.

Assays:
[1] = system: Str. faecium Leo-id: E119(P); assay: MIC, agar diffusion method, Str. faecium Leo-id: E119(P) (penicillin resistant); format: cell-based; conditions: for MIC: Enterococcus faecium, read-out: MIC value (concentration in μg/ml required for 90% inhibition)
From the text: (§1) In vitro investigations have evidenced high potency of compounds of the invention against several bacteria including Staphylococci, Streptococci, Corynebacteriae, Mycobacteriae and Neisseriae. […] The potency of new fusidic acid analogues are estimated by comparing the inhibition of growth of different microorganisms produced by known concentrations of the analogue to be examined and a reference like fusidic acid. The microbiological assay set up is in agreement with the European Pharmacopoeia 3rd edition (1997). It is an agar diffusion method where the same volume of the tested solution is added to cavities in agar. The inhibition zones are function of the concentration of the fusidic acid analogue used. All assays are run with fusidic acid as reference substance. [drawing 7]

[2] = system: several bacteria including Staphylococci, Streptococci, Corynebacteriae, Mycobacteriae and Neisseriae; assay: In vitro antibacterial activity, agar diffusion with fusidic acid as reference; format: cell-based; conditions: biological tests, see Table 1
From the text: as §1

S. aureus CJ232 = assay: MIC, agar diffusion method, S. aureus CJ232 (MRSA); format: cell-based; conditions: for MIC: Staphylococcus aureus, read-out: MIC value (concentration in μg/ml required for 90% inhibition)
From the text: as §1

Str.mitis Leo id: EG5 = assay: MIC, agar diffusion method, Str.mitis Leo id: EG5; format: cell-based; conditions: for MIC: Streptococcus mitis, read-out: MIC value (concentration in μg/ml required for 90% inhibition)
From the text: as §1

Str. sp. ATCC12449 = assay: MIC, agar diffusion method, Str. sp. ATCC12449; format: cell-based; conditions: for MIC: read-out: MIC value (concentration in μg/ml required for 90% inhibition)
From the text: as §1

[3] = system: Str. salvarius LEO-ID EG7; assay: MIC, agar diffusion method, Str. salvarius LEO-ID EG7; format: cell-based; conditions: for MIC: read-out: MIC value (concentration in μg/ml required for 90% inhibition)
From the text: as §1

Str. pyrogenes NCTC8304 = assay: MIC, agar diffusion method, Str. pyrogenes NCTC8304; format: cell-based; conditions: for MIC: read-out: MIC value (concentration in μg/ml required for 90% inhibition)
From the text: as §1

S. aureus ATC6538P = assay: MIC, agar diffusion method, S. aureus ATC6538P; format: cell-based; conditions: for MIC: Staphylococcus aureus, read-out: MIC value (concentration in μg/ml required for 90% inhibition)
From the text: as §1

S. aureus ATCC 29213 = assay: MIC, agar diffusion method, S. aureus ATCC 29213; format: cell-based; conditions: for MIC: Staphylococcus aureus, ATCC29213, read-out: MIC value (concentration in μg/ml required for 90% inhibition)
From the text: as §1

[4] = system: Str. pyrogenes Leo id: EC5; assay: MIC, agar diffusion method, Str. pyrogenes Leo id: EC5; format: cell-based; conditions: for MIC: read-out: MIC value (concentration in μg/ml required for 90% inhibition)
From the text: as §1

S. aureus CJ234 (R) = assay: MIC, agar diffusion method, S. aureus CJ234 (R) (MRSA and Rifampicin resistant); format: cell-based; conditions: for MIC: Staphylococcus aureus, read-out: MIC value (concentration in μg/ml required for 90% inhibition)
From the text: as §1

Str. sp. Leo id: EF6 = assay: MIC, agar diffusion method, Str. sp. Leo id: EF6; format: cell-based; conditions: for MIC: read-out: MIC value (concentration in μg/ml required for 90% inhibition)
From the text: as §1

S. epidermidis ATCC12228 = assay: MIC, agar diffusion method, S. epidermidis ATCC12228; format: cell-based; conditions: for MIC: Staphylococcus epidermidis, read-out: MIC value (concentration in μg/ml required for 90% inhibition)
From the text: as §1

bacteria = conditions: reduction of C-24/C-25 and C-17/C-20 double bonds of fusidic acid; von Daehne et al. 1979; cited from earlier work

Row | Compound | MIC value (concentration in μg/ml required for 90% inhibition) [1] [µg/mL] | MIC value (concentration in μg/ml required for 90% inhibition) (S. aureus CJ232) [µg/mL] | MIC value (concentration in μg/ml required for 90% inhibition) (Str.mitis Leo id: EG5) [µg/mL] | MIC value (concentration in μg/ml required for 90% inhibition) (Str. sp. ATCC12449) [µg/mL] | MIC value (concentration in μg/ml required for 90% inhibition) [3] [µg/mL] | MIC value (concentration in μg/ml required for 90% inhibition) (Str. pyrogenes NCTC8304) [µg/mL] | MIC value (concentration in μg/ml required for 90% inhibition) (S. aureus ATC6538P) [µg/mL] | MIC value (concentration in μg/ml required for 90% inhibition) (S. aureus ATCC 29213) [µg/mL] | MIC value (concentration in μg/ml required for 90% inhibition) [4] [µg/mL] | MIC value (concentration in μg/ml required for 90% inhibition) (Str. sp. Leo id: EF6) [µg/mL] | MIC value (concentration in μg/ml required for 90% inhibition) (S. epidermidis ATCC12228) [µg/mL] | further results
1 | CC(=O)O[C@H]1C[C@@]2(C)C(CC(O)[C@@H]3C2(C)CCC2C(C)C(O)CC[C@@]23C)C12CC2(CCC=C(C)C)C(=O)O (stereo partly drawn) [Compound 101, 17S,20S-Methanofusidic acid] | – | – | – | – | – | – | – | – | – | – | – | MIC [1]: 0.125 µg/mL (≈ 0.236 µM); antibacterial activity compared to that of fusidic acid (1) [2]: comparable antibacterial activity; MIC (S. aureus CJ232): 0.125 µg/mL (≈ 0.236 µM); MIC (Str.mitis Leo id: EG5): 4 µg/mL (≈ 7.54 µM); MIC (Str. sp. ATCC12449): 16 µg/mL (≈ 30.1 µM); MIC [3]: 4 µg/mL (≈ 7.54 µM); melting point: 243 to 245 °C; MIC (Str. pyrogenes NCTC8304): 4 µg/mL (≈ 7.54 µM); MIC (S. aureus ATC6538P): 0.125 µg/mL (≈ 0.236 µM); MIC (S. aureus ATCC 29213): 0.125 µg/mL (≈ 0.236 µM); MIC [4]: 16 µg/mL (≈ 30.1 µM); MIC (S. aureus CJ234 (R)): 0.004 µg/mL (≈ 0.00754 µM); MIC (Str. sp. Leo id: EF6): 4 µg/mL (≈ 7.54 µM); MIC (S. epidermidis ATCC12228): 0.125 µg/mL (≈ 0.236 µM)
2 | CCOC1CC2(C)C(CC(O)C3C4(C)CCC(O)C(C)C4CCC32C)C12CC2(CCC=C(C)C)C(=O)O (stereo not drawn) [Compound 110, 16-Deacetoxy-16β-ethoxy-17S,20S-methanofusidic acid] | 0.25 | 1.0 | 64 | 64 | 64 | 4 | 0.125 | 0.125 | 64 | 64 | 0.125 | MIC value (concentration in μg/ml required for 90% inhibition) (S. aureus CJ234 (R)): 0.004 µg/mL
3 | tetrahydrofusidic acid | – | – | – | – | – | – | – | – | – | – | – | antibacterial activity (bacteria): almost complete loss of activity
4 | CC(C)=CCCC1(C(=O)O)CC12C(OC(=O)C(C)C)CC1(C)C2CC(O)C2C3(C)CCC(O)C(C)C3CCC21C (stereo not drawn) [Compound 107, 16-Deacetoxy-16β-(isopropionyloxy)-17S,20S-methanofusidic acid] | 4 | 1.0 | 16 | 64 | 64 | 64 | 0.25 | 1.0 | 64 | 16 | 0.25 | –
5 | CC(=O)O[C@H]1C[C@@]2(C)C(CC(O)[C@@H]3C2(C)CCC2C(C)C(O)CC[C@@]23C)/C1=C(\CCC=C(C)C)C(=O)O (stereo partly shown) [Fusidic acid (1), fusidic acid] | – | – | – | – | – | – | – | – | – | – | – | MIC [1]: 0.125 µg/mL (≈ 0.242 µM); MIC (S. aureus CJ232): 0.125 µg/mL (≈ 0.242 µM); MIC (Str.mitis Leo id: EG5): 4 µg/mL (≈ 7.74 µM); MIC (Str. sp. ATCC12449): 4 µg/mL (≈ 7.74 µM); MIC [3]: 4 µg/mL (≈ 7.74 µM); MIC (Str. pyrogenes NCTC8304): 4 µg/mL (≈ 7.74 µM); MIC (S. aureus ATC6538P): 0.125 µg/mL (≈ 0.242 µM); MIC (S. aureus ATCC 29213): 0.125 µg/mL (≈ 0.242 µM); MIC [4]: 4 µg/mL (≈ 7.74 µM); MIC (S. aureus CJ234 (R)): 0.004 µg/mL (≈ 0.00774 µM); MIC (Str. sp. Leo id: EF6): 4 µg/mL (≈ 7.74 µM); MIC (S. epidermidis ATCC12228): 0.125 µg/mL (≈ 0.242 µM)
6 | CC(=O)OC1CC2(C)C(CC(O)C3C4(C)CCC(O)C(C)C4CCC32C)C12CC2(CCCC(C)C)C(=O)O (stereo not drawn) [Compound 102, 24,25-Dihydro-17S,20S-methanofusidic acid] | 1 | 0.25 | 64 | 64 | 16 | 16 | 0.125 | 0.25 | 64 | 64 | 0.125 | MIC value (concentration in μg/ml required for 90% inhibition) (S. aureus CJ234 (R)): 0.25 µg/mL
7 | CC(=O)OC1CC2(C)C(CC(O)C3C4(C)CCC(=O)C(C)C4CCC32C)C12CC2(CCC=C(C)C)C(=O)O (stereo not drawn) [Compound 104, 3-Dehydro-17S,20S-methanofusidic acid] | 0.25 | 1.0 | 64 | 64 | 64 | 16 | 0.125 | 0.125 | 64 | 64 | 0.125 | –
